From patent US20230085307A1, “PYRIDAZINONE COMPOUND AND HERBICIDE” (NISSAN CHEMICAL CORPORATION, priority 2019, published 2023)

Key:
late watergrass = assay: Test Example 1: herbicidal activity, application before weed generation under submerged conditions (Table 16, symbol A); type: in vivo, late watergrass (Echinochloa oryzicola)
How it was run: (§1)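 Emulsion formulation, water-diluted to set dose, was put onto the flooded surface (4 cm depth, alluvial soil) the same day weeds were sown and 2.5-leaf rice transplanted. After 3 weeks at 25-30 °C under glass, each species was rated 0 (≤5% kill) to 5 (≥90% kill).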

Japanese bulrush = assay: Test Example 1: herbicidal activity, application before weed generation under submerged conditions (Table 16, symbol B); type: in vivo, Japanese bulrush (Schoenoplectus juncoides)
How it was run: as §1

oval-leafed pondweed = assay: Test Example 1: herbicidal activity, application before weed generation under submerged conditions (Table 16, symbol C); type: in vivo, oval-leafed pondweed (Monochoria vaginalis)
How it was run: as §1

barnyard grass [1] = assay: Test Example 3: herbicidal effect by foliage application, Wagner pot (Table 18, symbol H); type: in vivo, barnyard grass (Echinochloa crus-galli); details: 320 g/ha
How it was run: (§2)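 Plants were sown in alluvial soil held under 0.1–0.5 cm standing water and grown 14 days in a greenhouse at 25–30 °C. An emulsifiable formulation, water-diluted to the set dose, was then sprayed onto the foliage, and effects were scored three weeks later using previously defined criteria.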

Chinese sprangletop = assay: Test Example 3: herbicidal effect by foliage application, Wagner pot (Table 18, symbol D); type: in vivo, chinese sprangletop (Leptochloa chinensis); details: 320 g/ha
How it was run: as §2

rice flat sedge = assay: Test Example 3: herbicidal effect by foliage application, Wagner pot (Table 18, symbol E); type: in vivo, rice flat sedge (Cyperus iria); details: 320 g/ha
How it was run: as §2

southern crabgrass [2] = assay: Test Example 4: herbicidal effect by soil treatment (Table 19, symbol F); type: in vivo, southern crabgrass (Digitaria ciliaris)
How it was run: (§3)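 Three weeks of greenhouse growth at 25° C. to 30° C. followed a uniform surface spray of water-diluted emulsion at a predetermined herbicide amount. Seeds had been sown beforehand under about 1.5 cm of sterilized diluvial soil. Grading followed criteria set out in an earlier test.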

green foxtail [3] = assay: Test Example 4: herbicidal effect by soil treatment (Table 19, symbol G); type: in vivo, green foxtail (Setaria viridis)
How it was run: as §3

barnyard grass [4] = assay: Test Example 4: herbicidal effect by soil treatment (Table 19, symbol H); type: in vivo, barnyard grass (Echinochloa crus-galli)
How it was run: as §3

wild oat [5] = assay: Test Example 4: herbicidal effect by soil treatment (Table 19, symbol I); type: in vivo, wild oat (Avena fatua)
How it was run: as §3

blackgrass [6] = assay: Test Example 4: herbicidal effect by soil treatment (Table 19, symbol J); type: in vivo, blackgrass (Alopecurus myosuroides)
How it was run: as §3

Italian ryegrass [7] = assay: Test Example 4: herbicidal effect by soil treatment (Table 19, symbol K); type: in vivo, Italian ryegrass (Lolium multiflorum)
How it was run: as §3

windgrass [8] = assay: Test Example 4: herbicidal effect by soil treatment (Table 19, symbol L); type: in vivo, windgrass (Apera spica-venti)
How it was run: as §3

velvetleaf [9] = assay: Test Example 4: herbicidal effect by soil treatment (Table 19, symbol M); type: in vivo, velvetleaf (Abutilon theophrasti)
How it was run: as §3

redroot pigweed = assay: Test Example 4: herbicidal effect by soil treatment (Table 19, symbol N); type: in vivo, redroot pigweed (Amaranthus retroflexus)
How it was run: as §3

lambsquarters [10] = assay: Test Example 4: herbicidal effect by soil treatment (Table 19, symbol O); type: in vivo, lambsquarters (Chenopodium album)
How it was run: as §3

chickweed = assay: Test Example 4: herbicidal effect by soil treatment (Table 19, symbol P); type: in vivo, common chickweed (Stellaria media)
How it was run: as §3

persian speedwell [11] = assay: Test Example 4: herbicidal effect by soil treatment (Table 19, symbol R); type: in vivo, Persian speedwell (Veronica persica)
How it was run: as §3

southern crabgrass [12] = assay: Test Example 5: herbicidal effect by foliage application, plastic box (Table 20, symbol F); type: in vivo, southern crabgrass (Digitaria ciliaris); details: foliage application, 320 g/ha
How it was run: (§4)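 Plants sown in sterilized diluvial soil and grown 14 days in a greenhouse at 25° C to 30° C, then sprayed on the foliage with the compound's emulsion diluted in water to a predetermined herbicide amount. Injury to weeds and crops scored three weeks after application on a visual rating scale.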

green foxtail [13] = assay: Test Example 5: herbicidal effect by foliage application, plastic box (Table 20, symbol G); type: in vivo, green foxtail (Setaria viridis); details: foliage application, 320 g/ha
How it was run: as §4

barnyard grass [14] = assay: Test Example 5: herbicidal effect by foliage application, plastic box (Table 20, symbol H); type: in vivo, barnyard grass (Echinochloa crus-galli); details: foliage application, 320 g/ha
How it was run: as §4

wild oat [15] = assay: Test Example 5: herbicidal effect by foliage application, plastic box (Table 20, symbol I); type: in vivo, wild oat (Avena fatua); details: foliage application, 320 g/ha
How it was run: as §4

blackgrass [16] = assay: Test Example 5: herbicidal effect by foliage application, plastic box (Table 20, symbol J); type: in vivo, blackgrass (Alopecurus myosuroides); details: foliage application, 320 g/ha
How it was run: as §4

Italian ryegrass [17] = assay: Test Example 5: herbicidal effect by foliage application, plastic box (Table 20, symbol K); type: in vivo, Italian ryegrass (Lolium multiflorum); details: foliage application, 320 g/ha
How it was run: as §4

windgrass [18] = assay: Test Example 5: herbicidal effect by foliage application, plastic box (Table 20, symbol L); type: in vivo, windgrass (Apera spica-venti); details: foliage application, 320 g/ha
How it was run: as §4

velvetleaf [19] = assay: Test Example 5: herbicidal effect by foliage application, plastic box (Table 20, symbol M); type: in vivo, velvetleaf (Abutilon theophrasti); details: foliage application, 320 g/ha
How it was run: as §4

lambsquarters [20] = assay: Test Example 5: herbicidal effect by foliage application, plastic box (Table 20, symbol O); type: in vivo, lambsquarters (Chenopodium album); details: foliage application, 320 g/ha
How it was run: as §4

persian speedwell [21] = assay: Test Example 5: herbicidal effect by foliage application, plastic box (Table 20, symbol R); type: in vivo, Persian speedwell (Veronica persica); details: foliage application, 320 g/ha
How it was run: as §4

[22] = amount of applied herbicide 320 g/ha

With `CCCCCCOc1ccc(-c2sc3ccc(F)cc3c2-c2c(OC(=O)CCC)c(C)nn(C)c2=O)cc1` [2-041] the “Herbicidal effect on A: late watergrass (grade 0-5)” value (late watergrass; 320 g/ha applied herbicide) was 3 (Herbicidal rate of 40% or more and less than 70%), the “Herbicidal effect on B: Japanese bulrush (grade 0-5)” value (Japanese bulrush; 320 g/ha applied herbicide) was 0 (Herbicidal rate of 5% or less (almost no effect)) and the “Herbicidal effect on C: oval-leafed pondweed (grade 0-5)” value (oval-leafed pondweed; 320 g/ha applied herbicide) was 0 (Herbicidal rate of 5% or less (almost no effect)). The “herbicidal effect on H (barnyard grass), rating 0-5” value (barnyard grass [1]) was 3 (Herbicidal rate of 40% or more and less than 70%), the “herbicidal effect on D (Chinese sprangletop), rating 0-5” value (Chinese sprangletop) was 3 (Herbicidal rate of 40% or more and less than 70%) and the “herbicidal effect on E (rice flat sedge), rating 0-5” value (rice flat sedge) was 1 (Herbicidal rate of 5% or more and less than 20%). For the same compound, the “herbicidal effect rating, F: southern crabgrass” value (southern crabgrass [2]; 320 g/ha) was 0 (Herbicidal rate of 5% or less (almost no effect)), the “herbicidal effect rating, G: green foxtail” value (green foxtail [3]; 320 g/ha) was 0 (Herbicidal rate of 5% or less (almost no effect)) and the “herbicidal effect rating, H: barnyard grass” value (barnyard grass [4]; 320 g/ha) was 0 (Herbicidal rate of 5% or less (almost no effect)). For the same compound, the “herbicidal effect rating, I: wild oat” value (wild oat [5]; 320 g/ha) was 0 (Herbicidal rate of 5% or less (almost no effect)), the “herbicidal effect rating, J: blackgrass” value (blackgrass [6]; 320 g/ha) was 0 (Herbicidal rate of 5% or less (almost no effect)) and the “herbicidal effect rating, K: Italian ryegrass” value (Italian ryegrass [7]; 320 g/ha) was 0 (Herbicidal rate of 5% or less (almost no effect)). The “herbicidal effect rating, L: windgrass” value (windgrass [8]; 320 g/ha) was 0 (Herbicidal rate of 5% or less (almost no effect)), the “herbicidal effect rating, M: velvetleaf” value (velvetleaf [9]; 320 g/ha) was 0 (Herbicidal rate of 5% or less (almost no effect)) and the “herbicidal effect rating, N: redroot pigweed” value (redroot pigweed; 320 g/ha) was 0 (Herbicidal rate of 5% or less (almost no effect)). The “herbicidal effect rating, O: lambsquarters” value (lambsquarters [10]; 320 g/ha) was 2 (Herbicidal rate of 20% or more and less than 40%), the “herbicidal effect rating, P: chickweed” value (chickweed; 320 g/ha) was 0 (Herbicidal rate of 5% or less (almost no effect)) and the “herbicidal effect rating, R: persian speedwell” value (persian speedwell [11]; 320 g/ha) was 0 (Herbicidal rate of 5% or less (almost no effect)). The “effect on southern crabgrass (F)” value (southern crabgrass [12]; 3 weeks after application) was 0 (Herbicidal rate of 5% or less (almost no effect)), the “effect on green foxtail (G)” value (green foxtail [13]; 3 weeks after application) was 0 (Herbicidal rate of 5% or less (almost no effect)) and the “effect on barnyard grass (H)” value (barnyard grass [14]; 3 weeks after application) was 0 (Herbicidal rate of 5% or less (almost no effect)). The “effect on wild oat (I)” value (wild oat [15]; 3 weeks after application) was 0 (Herbicidal rate of 5% or less (almost no effect)), the “effect on blackgrass (J)” value (blackgrass [16]; 3 weeks after application) was 0 (Herbicidal rate of 5% or less (almost no effect)) and the “effect on Italian ryegrass (K)” value (Italian ryegrass [17]; 3 weeks after application) was 0 (Herbicidal rate of 5% or less (almost no effect)). The “effect on windgrass (L)” value (windgrass [18]; 3 weeks after application) was 0 (Herbicidal rate of 5% or less (almost no effect)), the “effect on velvetleaf (M)” value (velvetleaf [19]; 3 weeks after application) was 1 (Herbicidal rate of 5% or more and less than 20%) and the “effect on lambsquarters (O)” value (lambsquarters [20]; 3 weeks after application) was 3 (Herbicidal rate of 40% or more and less than 70%). The “effect on persian speedwell (R)” value (persian speedwell [21]; 3 weeks after application) was 3 (Herbicidal rate of 40% or more and less than 70%).

`CCCC(=O)Oc1c(C)nn(C)c(=O)c1-c1c(-c2ccc(F)cc2OC)sc2cc(Cl)c(Cl)cc12` [5-052] was tested, and the “Herbicidal effect, A: late watergrass” value (late watergrass; [22]) was 0 (Herbicidal rate of 5% or less (almost no effect)), the “Herbicidal effect, B: Japanese bulrush” value (Japanese bulrush; [22]) was 3 (Herbicidal rate of 40% or more and less than 70%) and the “Herbicidal effect, C: oval-leafed pondweed” value (oval-leafed pondweed; [22]) was 0 (Herbicidal rate of 5% or less (almost no effect)). For the same compound, the “herbicidal effect on barnyard grass (H)” value (barnyard grass [1]) was 5 (Herbicidal rate of 90% or more (almost completely withered)), the “herbicidal effect on Chinese sprangletop (D)” value (Chinese sprangletop) was 3 (Herbicidal rate of 40% or more and less than 70%) and the “herbicidal effect on rice flat sedge (E)” value (rice flat sedge) was 5 (Herbicidal rate of 90% or more (almost completely withered)). The “F: southern crabgrass, herbicidal effect grade” value (southern crabgrass [2]; [22]) was 0 (Herbicidal rate of 5% or less (almost no effect)), the “G: green foxtail, herbicidal effect grade” value (green foxtail [3]; [22]) was 0 (Herbicidal rate of 5% or less (almost no effect)) and the “H: barnyard grass, herbicidal effect grade” value (barnyard grass [4]; [22]) was 0 (Herbicidal rate of 5% or less (almost no effect)). The “I: wild oat, herbicidal effect grade” value (wild oat [5]; [22]) was 0 (Herbicidal rate of 5% or less (almost no effect)), the “J: blackgrass, herbicidal effect grade” value (blackgrass [6]; [22]) was 0 (Herbicidal rate of 5% or less (almost no effect)) and the “K: Italian ryegrass, herbicidal effect grade” value (Italian ryegrass [7]; [22]) was 0 (Herbicidal rate of 5% or less (almost no effect)). The “L: windgrass, herbicidal effect grade” value (windgrass [8]; [22]) was 0 (Herbicidal rate of 5% or less (almost no effect)), the “M: velvetleaf, herbicidal effect grade” value (velvetleaf [9]; [22]) was 0 (Herbicidal rate of 5% or less (almost no effect)) and the “N: redroot pigweed, herbicidal effect grade” value (redroot pigweed; [22]) was 2 (Herbicidal rate of 20% or more and less than 40%). The “O: lambsquarters, herbicidal effect grade” value (lambsquarters [10]; [22]) was 3 (Herbicidal rate of 40% or more and less than 70%), the “P: chickweed, herbicidal effect grade” value (chickweed; [22]) was 3 (Herbicidal rate of 40% or more and less than 70%) and the “R: persian speedwell, herbicidal effect grade” value (persian speedwell [11]; [22]) was 0 (Herbicidal rate of 5% or less (almost no effect)). For the same compound, the “herbicidal effect on southern crabgrass (F)” value (southern crabgrass [12]; three weeks after application) was 0 (Herbicidal rate of 5% or less (almost no effect)), the “herbicidal effect on green foxtail (G)” value (green foxtail [13]; three weeks after application) was 3 (Herbicidal rate of 40% or more and less than 70%) and the “herbicidal effect on barnyard grass (H)” value (barnyard grass [14]; three weeks after application) was 4 (Herbicidal rate of 70% or more and less than 90%). For the same compound, the “herbicidal effect on wild oat (I)” value (wild oat [15]; three weeks after application) was 0 (Herbicidal rate of 5% or less (almost no effect)), the “herbicidal effect on blackgrass (J)” value (blackgrass [16]; three weeks after application) was 4 (Herbicidal rate of 70% or more and less than 90%) and the “herbicidal effect on Italian ryegrass (K)” value (Italian ryegrass [17]; three weeks after application) was 0 (Herbicidal rate of 5% or less (almost no effect)). For the same compound, the “herbicidal effect on windgrass (L)” value (windgrass [18]; three weeks after application) was 4 (Herbicidal rate of 70% or more and less than 90%), the “herbicidal effect on velvetleaf (M)” value (velvetleaf [19]; three weeks after application) was 4 (Herbicidal rate of 70% or more and less than 90%) and the “herbicidal effect on lambsquarters (O)” value (lambsquarters [20]; three weeks after application) was 5 (Herbicidal rate of 90% or more (almost completely withered)). For the same compound, the “herbicidal effect on persian speedwell (R)” value (persian speedwell [21]; three weeks after application) was 4 (Herbicidal rate of 70% or more and less than 90%).
